# PubChem BioAssay (NCI)
#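 Assay format: 96-well plates, 48-hour exposure. GI50 = concentration required for 50% inhibition of growth. At the TGI there is no net growth.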
# System: SNB-75 CNS
# Experiment: inhibition of tumour cell growth, NCI panel, 48 h
Structure (SMILES),GI50 [µM],TGI [µM]
Oc1ccc(Cl)cc1/C=N\NC(=S)N/N=C/c1cc(Cl)ccc1O,6.35,> 100
O=c1[nH]cc(C(F)(C(F)(F)F)C(F)(F)F)c(=O)[nH]1,,> 100
COc1ccc2c(c1)c1c3n2CCNN=C3CCC1,,> 100
CC(=O)[C-](C(C)=O)c1ccccc1.CC(=O)[C-](C(C)=O)c1ccccc1.CC(=O)[C-](C(C)=O)c1ccccc1.[Cl-].[Zr+4],33,83.9
O=Cc1ccc(N2CCN(c3ccc(C=O)cc3)CC2)cc1,> 100,> 100
CC(C)N1C(C)[C@@H](c2ccccc2)O[P@]1(=O)CC1=CCCCC1 (stereo partly specified),,> 100
COc1ccc(NC(=O)C2C(=O)N(c3ccc(OC)cc3)C(=O)/C2=N\NC(N)=O)cc1 (stereo unspecified),,49.3
C/C(=N\NS(=O)(=O)c1ccc([N+](=O)[O-])cc1)c1ccc[n+]([O-])n1,,5.36
S=c1c2ccccc2c(=S)n2n1CC=CC2,,> 100
CC(C)(C)Sc1nnc(SC(C)(C)C)c2c(=O)[nH]nc(SC(C)(C)C)c12,,24.3
N#CC(C(=O)CCCC(=O)Nc1ccc(Cl)cc1Cl)c1ccc(Cl)cc1 (stereo unspecified),,> 100
O=CCCCC(Sc1ccccc1)Sc1ccccc1,,35.9
COc1ccc(C)cc1C1CCC(=O)O1 (stereo unspecified),,> 100
Cc1ccc2nc(NC(=O)C(=O)CC(=O)c3cccc4ccccc34)sc2c1,,36.5
Nc1c(C(=O)Nc2cccc3ccccc23)sc2nc3c(cc12)C(=O)CCC3,0.145,12.2
O=C1CCC(=O)c2sccc2N1,,> 100
CCCCCCCCCCCCCCCCCC(=O)NCC(COP(=O)(O)O)OCC (stereo unspecified),,82.5
Cc1cc2nc(-c3c(F)cccc3Cl)n(Cc3c(F)cccc3Cl)c2cc1C,45.5,> 100
CCOC(=O)c1c(C)n(Cc2ccccc2)c2c1cc1oc(=O)c(=O)n3cnc2c13,28.5,> 50
O=C1C=Cc2ncccc2C1=O,,49.8
C/C(CC(=O)Nc1cccc([N+](=O)[O-])c1)=N\NC(=O)CC#N,,> 100
[CH3][Sn]1([CH3])[O]CC(COc2cc(Cl)c(Cl)cc2Cl)[O]1 (stereo unspecified),23.1,68.8
CCc1cc(Cc2ccc(C)c(NC(=O)C(=O)C3C(=O)NC(=O)NC3=O)c2CC)cc(C)c1NC(=O)C(=O)C1C(=O)NC(=O)NC1=O,,> 100
CC(=O)OC(=O)O/C=C\CCl,,> 100
O=C(Nc1nc2ccccc2s1)c1cc(-c2ccc(F)cc2)n2nc(-c3ccccc3)cc2n1,1.75,5.82
CC(=O)c1c2c(cc3c1CC1(C3)Cc3cc4c(c(C(=O)O)c3C1)CCC4)CCC2 (stereo unspecified),,> 100
C/C(=N/O)c1ccc(Nc2cc(-n3ccnc3)c3ccccc3n2)cc1,7.04,73.5
Cc1ccc(/C=N/NS(=O)(=O)c2ccccc2)c(C)c1,,> 100
C#CCOCn1cnc2ncnc(N)c21,,> 100
Cc1noc(/N=C2\C=C(Nc3onc(C)c3C)C(=O)c3ccccc32)c1C,,> 100

# System: T-47D breast
# Experiment: inhibition of tumour cell growth, NCI panel, 48 h
Structure (SMILES),GI50 [µM],TGI [µM]
CN1CCN(c2ccc3nc(-c4ccc(OCCCCN5CCN(CCCCN6C(=O)c7cccc8cccc(c78)C6=O)CC5)cc4)[nH]c3c2)CC1,31.2,> 100
CC1=C(N2CC2)C(=O)c2ccccc2C1=O,,28.7
Oc1ccc(Cl)cc1/C=N\NC(=S)N/N=C/c1cc(Cl)ccc1O,2.73,73.4
O=Cc1ccc(N2CCN(c3ccc(C=O)cc3)CC2)cc1,3.35,32.6
Cc1cc(Nc2nc(-c3ccncc3)nc3ccccc23)n[nH]1,5,> 100
Cc1ccc(-c2n[nH]c(=O)c3noc(-c4ccc(C)cc4)c23)cc1,2.41,> 100
Nc1ccn(C2OC(C(OC3OC(CO)C(O)C(N)C3O)C(O)C(O)C(O)C(O)CO)C(N)C(O)C2O)c(=O)n1 (stereo unspecified),,> 100
Nc1c(C(=O)Nc2cccc3ccccc23)sc2nc3c(cc12)C(=O)CCC3,0.759,> 100
O=C(/C=C/c1ccccc1)CCC1C(=O)NC(=S)NC1=O,,> 100
O=C(Nc1nc2ccccc2s1)c1cc(-c2ccc(F)cc2)n2nc(-c3ccccc3)cc2n1,3.34,> 100
C/C(=N/O)c1ccc(Nc2cc(-n3ccnc3)c3ccccc3n2)cc1,9.96,> 100

# System: U251 CNS
# Experiment: inhibition of tumour cell growth, NCI panel, 48 h
Structure (SMILES),GI50 [µM],TGI [µM]
CN1CCN(c2ccc3nc(-c4ccc(OCCCCN5CCN(CCCCN6C(=O)c7cccc8cccc(c78)C6=O)CC5)cc4)[nH]c3c2)CC1,27.9,> 100
CC1=C(N2CC2)C(=O)c2ccccc2C1=O,,10.3
O=S1(=O)c2ccccc2N=C(c2ccccc2Cl)CC1c1ccc(F)cc1 (stereo unspecified),,28.4
CC1=CC(=O)NP(=O)(C23CC4CC(CC(C4)C2)C3)N1 (stereo unspecified),,> 100
Oc1ccc(Cl)cc1/C=N\NC(=S)N/N=C/c1cc(Cl)ccc1O,1.08,> 100
O=c1[nH]cc(C(F)(C(F)(F)F)C(F)(F)F)c(=O)[nH]1,,> 100
COc1ccc2c(c1)c1c3n2CCNN=C3CCC1,,> 100
CC(=O)[C-](C(C)=O)c1ccccc1.CC(=O)[C-](C(C)=O)c1ccccc1.CC(=O)[C-](C(C)=O)c1ccccc1.[Cl-].[Zr+4],58,> 100
O=Cc1ccc(N2CCN(c3ccc(C=O)cc3)CC2)cc1,> 100,> 100
CC(C)N1C(C)[C@@H](c2ccccc2)O[P@]1(=O)CC1=CCCCC1 (stereo partly specified),,> 100
Cc1cc(Nc2nc(-c3ccncc3)nc3ccccc23)n[nH]1,4.1,> 100
COC(=O)C(=O)C(C(=O)C(=O)Nc1cc(Cl)c(Cl)cc1Cl)c1nc2ccc([N+](=O)[O-])cc2[nH]c1=O (stereo unspecified),,> 100
COc1ccc(NC(=O)C2C(=O)N(c3ccc(OC)cc3)C(=O)/C2=N\NC(N)=O)cc1 (stereo unspecified),,35.4
C/C(=N\NS(=O)(=O)c1ccc([N+](=O)[O-])cc1)c1ccc[n+]([O-])n1,,5.06
S=c1c2ccccc2c(=S)n2n1CC=CC2,,> 100
CC(C)(C)Sc1nnc(SC(C)(C)C)c2c(=O)[nH]nc(SC(C)(C)C)c12,,19.7
CCCCNC1=C(C(=O)OCC)/C(=N/NC(=O)c2ccccc2O)CO1,,> 100
Cc1ccc(-c2n[nH]c(=O)c3noc(-c4ccc(C)cc4)c23)cc1,0.814,18.8
O=CCCCC(Sc1ccccc1)Sc1ccccc1,,30.3

Structure (SMILES),GI50 [µM],TGI [µM]
Nc1ccn(C2OC(C(OC3OC(CO)C(O)C(N)C3O)C(O)C(O)C(O)C(O)CO)C(N)C(O)C2O)c(=O)n1 (stereo unspecified),,> 100
COc1ccc(C)cc1C1CCC(=O)O1 (stereo unspecified),,> 100
Cc1ccc2nc(NC(=O)C(=O)CC(=O)c3cccc4ccccc34)sc2c1,,49.7
Nc1c(C(=O)Nc2cccc3ccccc23)sc2nc3c(cc12)C(=O)CCC3,0.266,
O=C1CCC(=O)c2sccc2N1,,> 100
Cn1nc(-c2ccccc2)c(C(=O)/C=C/c2ccc(Cl)cc2)c(N2CCCC2)c1=O,,15.5
Cc1cc2nc(-c3c(F)cccc3Cl)n(Cc3c(F)cccc3Cl)c2cc1C,14.1,29.9
CCOC(=O)c1c(C)n(Cc2ccccc2)c2c1cc1oc(=O)c(=O)n3cnc2c13,12,> 50
O=C1C=Cc2ncccc2C1=O,,> 57.8
C/C(CC(=O)Nc1cccc([N+](=O)[O-])c1)=N\NC(=O)CC#N,,> 100
[CH3][Sn]1([CH3])[O]CC(COc2cc(Cl)c(Cl)cc2Cl)[O]1 (stereo unspecified),> 100,> 100
O=C(/C=C/c1ccccc1)CCC1C(=O)NC(=S)NC1=O,,> 100
CCc1cc(Cc2ccc(C)c(NC(=O)C(=O)C3C(=O)NC(=O)NC3=O)c2CC)cc(C)c1NC(=O)C(=O)C1C(=O)NC(=O)NC1=O,,> 100
CC(=O)OC(=O)O/C=C\CCl,,> 100
CC(=O)c1c2c(cc3c1CC1(C3)Cc3cc4c(c(C(=O)O)c3C1)CCC4)CCC2 (stereo unspecified),,70.6
C/C(=N/O)c1ccc(Nc2cc(-n3ccnc3)c3ccccc3n2)cc1,27.3,> 100
Cc1ccc(/C=N/NS(=O)(=O)c2ccccc2)c(C)c1,,> 100
C#CCOCn1cnc2ncnc(N)c21,,> 100
Cc1noc(/N=C2\C=C(Nc3onc(C)c3C)C(=O)c3ccccc32)c1C,,> 100
